# Test system: PMA-differentiated THP-1 cells
# Experiment: IL-1β production in PMA-differentiated THP-1 cells stimulated with gramicidin (hTHP-1 assay containing 2% fetal bovine serum; Procedures 1 and 2)
# Assay type: cell-based, human
# Details: Homo sapiens, THP-1, Table B1; 2% fetal bovine serum; class symbols; read-out: Average IC50 of compounds in hTHP-1 assay: hTHP-1 IC50
# Procedure, shortened: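 Human monocytic THP-1 cells, matured overnight with PMA at 20 ng/ml, are seeded in low-serum (2% FBS) RPMI. Test compounds, at final concentrations from 100 down to 0.0017 μM, precede gramicidin (5 μM, 2 h) by one hour. Released IL-1β is then determined by HTRF.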
row,Compound,IC50
1,"CC(C)(O)c1ccc(S(N)(=O)=NC(=O)Nc2c3c(nc4c2CCC4)CCC3)cn1 (single isomer, unassigned) [Compound 156b, (R) or (S)-N′-((1,2,3,5,6,7-hexahydrodicyclo-penta[b,e]pyridin-8-yl)carbamoyl)-6-(2-hydroxypropan-2-yl)pyridine-3-sulfonimidamide]",1 to 5 µM
2,"Cc1nc(C(C)(C)O)ccc1S(N)(=O)=NC(=O)Nc1c2c(nc3c1CCC3)CCC2 (single isomer, unassigned) [Compound 157b, (R) or (S)-N′-((1,2,3,5,6,7-hexahydrodicyclo-penta[b,e]pyridin-8-yl)carbamoyl)-6-(2-hydroxypropan-2-yl)-2-methylpyridine-3-sulfonimidamide]",5 to 30 µM
3,"Cn1nc(S(N)(=O)=NC(=O)Nc2c3c(nc4c2CCC4)CCC3)cc1C(C)(C)O (single isomer, unassigned) [Compound 158a, (R) or (S)-N′-((1,2,3,5,6,7-hexahydrodicyclo-penta[b,e]pyridin-8-yl)carbamoyl)-5-(2-hydroxypropan-2-yl)-1-methyl-1H-pyrazole-3-sulfonimidamide]",1 to 5 µM
4,"CC(C)c1cncc(C(C)C)c1NC(=O)N=S(N)(=O)c1cnc(C(C)(C)O)s1 (single isomer, unassigned) [Compound 160b, (S) or (R)-N′-((3,5-diisopropylpyridin-4-yl)carbamoyl)-2-(2-hydroxypropan-2-yl)thiazole-5-sulfonimidamide]",5 to 30 µM
5,"CC(C)c1ncc(F)c(C(C)C)c1NC(=O)N=S(N)(=O)c1ncc(C(C)(C)O)s1 (single isomer, unassigned) [Compound 165b]",5 to 30 µM

# Same assay, conditions: Homo sapiens, THP-1, Table B1; 2% fetal bovine serum; numeric bounds; read-out: Average IC50 of compounds in hTHP-1 assay: hTHP-1 IC50
row,Compound,IC50
1,"CC(C)(O)c1ccc(S(N)(=O)=NC(=O)Nc2c3c(nc4c2CCC4)CCC3)cn1 (single isomer, unassigned) [Compound 156a, (S) or (R)-N′-((1,2,3,5,6,7-hexahydrodicyclo-penta[b,e]pyridin-8-yl)carbamoyl)-6-(2-hydroxypropan-2-yl)pyridine-3-sulfonimidamide]",> 30 µM
2,"Cc1nc(C(C)(C)O)ccc1S(N)(=O)=NC(=O)Nc1c2c(nc3c1CCC3)CCC2 (single isomer, unassigned) [Compound 157a, (S) or (R)-N′-((1,2,3,5,6,7-hexahydrodicyclo-penta[b,e]pyridin-8-yl)carbamoyl)-6-(2-hydroxypropan-2-yl)-2-methylpyridine-3-sulfonimidamide]",> 30 µM
3,"Cn1nc(S(N)(=O)=NC(=O)Nc2c3c(nc4c2CCC4)CCC3)cc1C(C)(C)O (single isomer, unassigned) [Compound 158b, (S) or (R)-N′-((1,2,3,5,6,7-hexahydrodicyclo-penta[b,e]pyridin-8-yl)carbamoyl)-5-(2-hydroxypropan-2-yl)-1-methyl-1H-pyrazole-3-sulfonimidamide]",> 30 µM
4,"CC1CCc2c1nc1c(c2NC(=O)N=S(N)(=O)c2sc(C(C)(C)O)nc2CO)CCC1 (single isomer, unassigned) [Compound 168ab, (S,R) or (S,S)-4-(hydroxymethyl)-2-(2-hydroxypropan-2-yl)-N′-((3-methyl-1,2,3,5,6,7-hexahydrodicyclo-penta[b,e]pyridin-8-yl)carbamoyl)thiazole-5-sulfonimidamide]",> 30 µM

# Same assay, conditions: Table B1; 2% fetal bovine serum; class symbols; read-out: Average IC50 of compounds in hTHP-1 assay: hTHP-1 IC50
row,Compound,IC50
1,"CC(C)(O)c1csc(S(N)(=O)=NC(=O)Nc2c3c(nc4c2CCC4)CCC3)c1 (single isomer, unassigned) [Compound 155a, (R) or (S)-N′-((1,2,3,5,6,7-hexahydrodicyclo-penta[b,e]pyridin-8-yl)carbamoyl)-4-(2-hydroxypropan-2-yl)thiophene-2-sulfonimidamide]",0.04 to 0.2 µM
2,"CC(C)(O)c1csc(S(N)(=O)=NC(=O)Nc2c3c(nc4c2CCC4)CCC3)c1 (single isomer, unassigned) [Compound 155b, (S) or (R)-N′-((1,2,3,5,6,7-hexahydrodicyclo-penta[b,e]pyridin-8-yl)carbamoyl)-4-(2-hydroxypropan-2-yl)thiophene-2-sulfonimidamide]",1 to 5 µM
3,"CC(C)(O)c1cc(S(N)(=O)=NC(=O)Nc2c3c(nc4c2CCC4)CCC3)nn1-c1ccccc1 (single isomer, unassigned) [Compound 159a, (R) or (S)-N′-((1,2,3,5,6,7-hexahydrodicyclo-penta[b,e]pyridin-8-yl)carbamoyl)-5-(2-hydroxypropan-2-yl)-1-phenyl-1H-pyrazole-3-sulfonimidamide]",1 to 5 µM
4,"CC(C)(O)c1cc(S(N)(=O)=NC(=O)Nc2c3c(nc4c2CCC4)CCC3)nn1-c1ccccc1 (single isomer, unassigned) [Compound 159b, (S) or (R)-N′-((1,2,3,5,6,7-hexahydrodicyclo-penta[b,e]pyridin-8-yl)carbamoyl)-5-(2-hydroxypropan-2-yl)-1-phenyl-1H-pyrazole-3-sulfonimidamide]",5 to 30 µM
5,"CC(C)(O)c1ncc(S(N)(=O)=NC(=O)Nc2c3c(nc4c2CCC4)CCCC3)s1 (single isomer, unassigned) [Compound 161a, (S) or (R)-N′-((2,3,5,6,7,8-hexahydro-1H-cyclopenta[b]quinolin-9-yl)carbamoyl)-2-(2-hydroxypropan-2-yl)thiazole-5-sulfonimidamide]",5 to 30 µM
6,"CC(C)(O)c1ncc(S(N)(=O)=NC(=O)Nc2c3c(nc4c2CCC4)CCCC3)s1 (single isomer, unassigned) [Compound 161b, (R) or (S)-N′-((2,3,5,6,7,8-hexahydro-1H-cyclopenta[b]quinolin-9-yl)carbamoyl)-2-(2-hydroxypropan-2-yl)thiazole-5-sulfonimidamide]",1 to 5 µM
7,"CC1CCc2c1nc1c(c2NC(=O)N=S(N)(=O)c2cnc(C(C)(C)O)s2)CCC1 (single isomer, unassigned) [Compound 162aa, (S,S) or (S,R)-2-(2-hydroxypropan-2-yl)-N′-((3-methyl-1,2,3,5,6,7-hexahydrodicyclo-penta[b,e]pyridin-8-yl)carbamoyl)thiazole-5-sulfonimidamide]",5 to 30 µM
8,"CC1CCc2c1nc1c(c2NC(=O)N=S(N)(=O)c2cnc(C(C)(C)O)s2)CCC1 (single isomer, unassigned) [Compound 162ab, (S,R) or (S,S)-2-(2-hydroxypropan-2-yl)-N′-((3-methyl-1,2,3,5,6,7-hexahydrodicyclo-penta[b,e]pyridin-8-yl)carbamoyl)thiazole-5-sulfonimidamide]",1 to 5 µM
9,"CC(C)c1ncc(F)c(C(C)C)c1NC(=O)N=S(N)(=O)c1nc(C(C)(C)O)cs1 (single isomer, unassigned) [Compound 163a, (R) or (S)-N′-((5-fluoro-2,4-diisopropylpyridin-3-yl)carbamoyl)-4-(2-hydroxypropan-2-yl)thiazole-2-sulfonimidamide]",0.04 to 0.2 µM
10,"CC(C)c1ncc(F)c(C(C)C)c1NC(=O)N=S(N)(=O)c1nc(C(C)(C)O)cs1 (single isomer, unassigned) [Compound 163b, (S) or (R)-N′-((5-fluoro-2,4-diisopropylpyridin-3-yl)carbamoyl)-4-(2-hydroxypropan-2-yl)thiazole-2-sulfonimidamide]",5 to 30 µM
11,"CC(C)c1ncc(F)c(C(C)C)c1NC(=O)N=S(N)(=O)c1cnc(C(C)(C)O)s1 (single isomer, unassigned) [Compound 164a, (R) or (S)-N′-((5-fluoro-2,4-diisopropylpyridin-3-yl)carbamoyl)-2-(2-hydroxypropan-2-yl)thiazole-5-sulfonimidamide]",1 to 5 µM
12,"CC(C)c1ncc(F)c(C(C)C)c1NC(=O)N=S(N)(=O)c1cnc(C(C)(C)O)s1 (single isomer, unassigned) [Compound 164b, (S) or (R)-N′-((5-fluoro-2,4-diisopropylpyridin-3-yl)carbamoyl)-2-(2-hydroxypropan-2-yl)thiazole-5-sulfonimidamide]",5 to 30 µM
13,"CC(C)(O)c1cnc(S(N)(=O)=NC(=O)Nc2c3c(nc4c2CCC4)CCC3)s1 (single isomer, unassigned) [Compound 167a, (S) or (R)-N′-((1,2,3,5,6,7-hexahydrodicyclo-penta[b,e]pyridin-8-yl)carbamoyl)-5-(2-hydroxypropan-2-yl)thiazole-2-sulfonimidamide]",5 to 30 µM
14,"CC(C)(O)c1cnc(S(N)(=O)=NC(=O)Nc2c3c(nc4c2CCC4)CCC3)s1 (single isomer, unassigned) [Compound 167b, (R) or (S)-N′-((1,2,3,5,6,7-hexahydrodicyclo-penta[b,e]pyridin-8-yl)carbamoyl)-5-(2-hydroxypropan-2-yl)thiazole-2-sulfonimidamide]",0.2 to 1 µM
15,"CC1CCc2c1nc1c(c2NC(=O)N=S(N)(=O)c2sc(C(C)(C)O)nc2CO)CCC1 (single isomer, unassigned) [Compound 168a, (S,R/S) or (R,R/S)-4-(hydroxymethyl)-2-(2-hydroxypropan-2-yl)-N′-((3-methyl-1,2,3,5,6,7-hexahydro-dicyclopenta[b,e]pyridin-8-yl)carbamoyl)thiazole-5-sulfonimidamide]",5 to 30 µM
16,"CC1CCc2c1nc1c(c2NC(=O)N=S(N)(=O)c2sc(C(C)(C)O)nc2CO)CCC1 (single isomer, unassigned) [Compound 168aa, (S,S) or (S,R)-4-(hydroxymethyl)-2-(2-hydroxypropan-2-yl)-N′-((3-methyl-1,2,3,5,6,7-hexahydrodicyclo-penta[b,e]pyridin-8-yl)carbamoyl)thiazole-5-sulfonimidamide]",5 to 30 µM
17,"CC1CCc2c1nc1c(c2NC(=O)N=S(N)(=O)c2sc(C(C)(C)O)nc2CO)CCC1 (single isomer, unassigned) [Compound 168b, (R,R/S) or (S,R/S)-4-(hydroxymethyl)-2-(2-hydroxypropan-2-yl)-N′-((3-methyl-1,2,3,5,6,7-hexa-hydrodicyclopenta[b,e]py-ridin-8-yl)carbamoyl)thia-zole-5-sulfonimidamide]",0.2 to 1 µM

# Source: US20230031406A1, “COMPOUNDS AND COMPOSITIONS FOR TREATING CONDITIONS ASSOCIATED WITH NLRP ACTIVITY” (Novartis AG, priority 2018, published 2023)
